Measured values: patent publication US9427428B2, “Benzimidazole-imidazole derivatives” (Janssen Sciences Ireland UC, priority 2009, dated 2016)

How the values were obtained:
[1] = system: HCV type 1b replicon (Huh-7 luc/neo cells); assay: HCV replicon assay, stable transfection (Huh-Luc, luciferase); assay type: cell-based; details: Hepatitis C virus, Huh-7, 72 h, three days incubation, average of all tests
Excerpt: The compounds of formula (I) were examined for inhibitory activity in the HCV replicon. This cellular assay is based on a bicistronic expression construct, as described by Lohmann et al. (Science (1999) 285: 110-113; Journal of Virology (2003) 77: 3007-3019) with modifications described by Krieger et al. (Journal of Virology (2001) 75: 4614-4624), and Lohmann et al. (Journal of Virology (2003) 77: 3007-3019) for genotype 1b and by Yi et al. (Journal of Virology (2004) 78: 7904-7915) for genotype 1a, in a multi-target screening strategy.
The method was as follows. The assay utilized the stably transfected cell line Huh-7 luc/neo (hereafter referred to as Huh-Luc). This cell line harbors an RNA encoding a bicistronic expression construct comprising the wild type NS3-NS5B regions of HCV type 1b translated from an Internal Ribosome Entry Site (IRES) from encephalomyocarditis virus (EMCV), preceded by a reporter portion (FfL-luciferase), and a selectable marker portion (neoR, neomycine phosphotransferase). The construct is flanked by 5′ and 3′ NTRs (non-translated regions) from HCV type 1b. Continued culture of the replicon cells in the presence of G418 (neoR) is dependent on the replication of the HCV RNA. The stably transfected replicon cells that replicate HCV RNA autonomously and to high levels, encoding inter alia luciferase, were used for screening the antiviral compounds.
The replicon cells were plated in 384 well plates in the presence of the test and control compounds which were added in various concentrations. Following an incubation of three days, HCV replication was measured by assaying luciferase activity (using standard luciferase assay substrates and reagents and a Perkin Elmer ViewLux™ ultraHTS microplate imager). Replicon cells in the control cultures have high luciferase expression in the absence of any inhibitor. The inhibitory activity of the compound was monitored on the Huh-Luc cells, enabling a dose-response curve for each test compound. EC50 values were then calculated, which represent the amount of compound required to decrease the level of detected luciferase activity by 50%, or more specifically, to reduce the ability of the genetically linked HCV replicon RNA to replicate.
Where a compound of formula (I) was tested more than once in the replicon assay, the average of all test results is given in this Table 2.

[2] = system: HCV genotype 1b Con1 replicon (Huh-7 lunet cells); assay: HCV replicon assay, transient transfection, genotype 1b; assay type: cell-based; details: Hepatitis C virus, 48 h, genotype 1b Con1, two days incubation, luciferase
Excerpt: (§1) In a transient set-up, a Huh-7 lunet hepatoma cell line was transiently transfected with an autonomously replicating RNA encoding a bi-cistronic expression construct. This construct comprises a firefly luciferase reporter gene preceding the NS3-NS5B subgenomic region of HCV (genotype 1a H77 or 1b Con1). Translation of the HCV subgenomic region is mediated by an internal ribosome entry site of encephalomyocarditis virus. The construct is furthermore flanked by 5′ and 3′ untranslated regions of HCV (genotype 1a H77 or 1b Con 1, respectively), which allow for replication of the RNA.
(§2) Cells were plated in 384 well plates in the presence of test and control compounds, which were added in various concentrations. Following an incubation of two days, replication of the HCV subgenomic replicon RNA was measured by assaying luciferase activity (using standard luciferase assay substrates and reagents and a Perkin Elmer ViewLux™ ultraHTS microplate imager). HCV subgenomic replicon containing cells in the control cultures have high luciferase expression in the absence of any inhibitor. The inhibitory activity of the compound was monitored, enabling a dose-response curve for each test compound. EC50 values were then calculated, which represent the amount of compound required to decrease the level of detected luciferase activity by 50%, or more specifically, to reduce the ability of the genetically linked HCV subgenomic RNA to replicate.
(§3) Where a compound of formula (I) was tested more than once in the transient replicon assay, the average of all test results is given in Table 3.

[3] = system: HCV genotype 1a H77 replicon (Huh-7 lunet cells); assay: HCV replicon assay, transient transfection, genotype 1a; assay type: cell-based; details: Hepatitis C virus, 48 h, genotype 1a H77, two days incubation, luciferase
Excerpt: as §1, §2, §3

[4] = Counterscreen MT4-LTR-Luc; assay type: cell-based; details: human
Excerpt: (§4) Counterscreen cell lines included a Huh-7 hepatoma cell line containing a human cytomegalovirus major immediate-early promoter-Luc construct (Huh7-CMV-Luc) and an MT4 T-cell line containing a long terminal repeat-Luc reporter (MT4-LTR-Luc).

[5] = Counterscreen Huh7-CMV-Luc; assay type: cell-based; details: human
Excerpt: as §4

[6] = system: HCV genotype 1b replicon NS5A L28T; assay: Transient HCV 1b replicon, NS5A mutant L28T; assay type: cell-based; details: Hepatitis C virus, read-out: EC50 L28T
Excerpt: as §1
(§5) In addition to the wild-type constructs, site-directed mutations were introduced into the transient HCV genotype 1b replicon in the gene encoding for the non-structural protein 5A (NS5A). More precisely, amino acid residues 28, 30, 31 and 93 in NS5A were independently altered.
as §2

[7] = system: HCV genotype 1b replicon NS5A R30H; assay: Transient HCV 1b replicon, NS5A mutant R30H; assay type: cell-based; details: Hepatitis C virus, read-out: EC50 R30H
Excerpt: as §1, §5, §2

[8] = system: HCV genotype 1b replicon NS5A L31F; assay: Transient HCV 1b replicon, NS5A mutant L31F; assay type: cell-based; details: Hepatitis C virus, read-out: EC50 L31F
Excerpt: as §1, §5, §2

[9] = system: HCV genotype 1b replicon NS5A L31M; assay: Transient HCV 1b replicon, NS5A mutant L31M; assay type: cell-based; details: Hepatitis C virus, read-out: EC50 L31M
Excerpt: as §1, §5, §2

[10] = system: HCV genotype 1b replicon NS5A L31V; assay: Transient HCV 1b replicon, NS5A mutant L31V; assay type: cell-based; details: Hepatitis C virus, read-out: EC50 L31V
Excerpt: as §1, §5, §2

[11] = system: HCV genotype 1b replicon NS5A Y93H; assay: Transient HCV 1b replicon, NS5A mutant Y93H; assay type: cell-based; details: Hepatitis C virus, read-out: EC50 Y93H
Excerpt: as §1, §5, §2

[12] = system: HCV genotype 1b replicon NS5A Y93C; assay: Transient HCV 1b replicon, NS5A mutant Y93C; assay type: cell-based; details: Hepatitis C virus, read-out: EC50 Y93C
Excerpt: as §1, §5, §2

[13] = Pharmacokinetic analysis after single oral administration, liver concentration; assay type: in vivo; details: male Sprague-Dawley rats, 10 mg/kg oral, solution in PEG400
Method: Compounds were dosed orally as a solution in PEG400 to male Sprague-Dawley rats at a dose level of 10 mg/kg. At serial time points, after dosing, the animals were sacrificed and liver samples collected. All samples were analyzed using a qualified research LC-MS/MS method to determine the concentration of the tested compounds in liver. Non-compartmental analysis using the lin/log trapezoidal rule was performed using WinNonlin™ Professional (Version 5.2.1).

Row | SMILES | EC50 [1] [nM] | EC50 [2] [nM] | EC50 [3] [nM] | CC50 [4] [nM] | CC50 [5] [nM] | EC50 [6] [nM] | EC50 [7] [nM] | EC50 [8] [nM] | EC50 [9] [nM] | EC50 [10] [nM] | EC50 [11] [nM] | EC50 [12] [nM] | Liver AUC [13] [ng·h/g]
1 | COC(=O)N[C@H](C(=O)N1CCC[C@H]1c1ncc(-c2ccc3cc(-c4ccc5nc([C@@H]6CCCN6C(=O)[C@@H](NC(=O)OC)C(C)C)[nH]c5c4)ccc3c2)[nH]1)C(C)C [Compound 3] | 0.007 | 0.008 | 0.051 | 5820 | 7640 | 0.229 | 0.072 | 0.032 | 0.184 | 0.504 | 0.47 | 0.012 | 23157
2 | COC(=O)N[C@H](C(=O)N1CCC[C@H]1c1ncc(-c2ccc3cc(-c4ccc5nc([C@@H]6CCCN6C(=O)[C@@H](NC(=O)OC)[C@@H](C)OC)[nH]c5c4)ccc3c2)[nH]1)[C@@H](C)OC [Compound 4] | 0.012 | 0.016 | 0.033 | > 984 | > 984 | 0.052 | 0.056 | 0.02 | 0.052 | 0.048 | 0.034 | 0.013 | 1539
3 | CC[C@H](C)[C@H](NC(=O)OC)C(=O)N1CCC[C@H]1c1ncc(-c2ccc3cc(-c4ccc5nc([C@@H]6CCCN6C(=O)[C@@H](NC(=O)OC)[C@@H](C)CC)[nH]c5c4)ccc3c2)[nH]1 [Compound 8] | 0.003 | 0.005 | 0.204 | > 984 | > 984 | 0.206 | 0.116 | 0.016 | 0.258 | 0.311 | 0.587 | < 0.013 | 50655
4 | COC(=O)N[C@H](C(=O)N1CCC[C@H]1c1ncc(-c2ccc3cc(-c4ccc5nc([C@@H]6CCCN6C(=O)[C@@H](NC(=O)OC)[C@@H](C)OC)[nH]c5c4)ccc3c2)[nH]1)C(C)C [Compound 9] | 0.007 | 0.007 | 0.03 | > 984 | > 984 | 0.081 | 0.045 | < 0.017 | 0.072 | 0.086 | 0.042 | < 0.013 | 6202
5 | COC(=O)N[C@H](C(=O)N1CCC[C@H]1c1nc2ccc(-c3ccc4cc(-c5cnc([C@@H]6CCCN6C(=O)[C@@H](NC(=O)OC)[C@@H](C)OC)[nH]5)ccc4c3)cc2[nH]1)C(C)C [Compound 11] | 0.006 | 0.012 | 0.048 | > 984 | > 984 | 0.117 | 0.05 | 0.021 | 0.087 | 0.141 | 0.167 | < 0.013 | 7928
6 | CC[C@H](C)[C@H](NC(=O)OC)C(=O)N1CCC[C@H]1c1nc2ccc(-c3ccc4cc(-c5cnc([C@@H]6CCCN6C(=O)[C@@H](NC(=O)OC)C(C)C)[nH]5)ccc4c3)cc2[nH]1 [Compound 13] | 0.002 | 0.002 | 0.051 | > 984 | > 984 | 0.109 | 0.027 | < 0.013 | 0.053 | 0.141 | 0.215 | < 0.013 | 51330
7 | CC[C@H](C)[C@H](NC(=O)OC)C(=O)N1CCC[C@H]1c1ncc(-c2ccc3cc(-c4ccc5[nH]c([C@@H]6CCCN6C(=O)[C@@H](NC(=O)OC)C(C)C)nc5c4)ccc3c2)[nH]1 [Compound 16] | 0.003 | 0.003 | 0.098 | > 984 | > 984 | 0.151 | 0.07 | 0.017 | 0.093 | 0.411 | 0.343 | < 0.013 | 12630
8 | CC[C@H](C)[C@H](NC(=O)OC)C(=O)N1CCC[C@H]1c1ncc(-c2ccc3cc(-c4ccc5[nH]c([C@@H]6CCCN6C(=O)[C@@H](NC(=O)OC)[C@@H](C)OC)nc5c4)ccc3c2)[nH]1 [Compound 17] | 0.005 | 0.005 | 0.049 | 9300 | 11100 | 0.037 | 0.036 | 0.005 | 0.025 | 0.037 | 0.034 | 0.003 | 4213
